Data published in US5116851A, “Pharmaceutical composition and method for treating cardiovascular diseases using substituted anilides and sulfonamides” (E. R. Squibb & Sons, Inc., priority 1990, dated 1992).

Legend:
[1] = system: Ischemic and Nonischemic Isolated Rat Heart; assay: Isolated perfused rat heart (Langendorff), global ischemia/reperfusion: cardiac function, flow and LDH release; parameters: species or system rat (male Sprague-Dawley); FLOW (coronary blood flow): unit not given here; settings: 1 μM
Protocol: Lactate dehydrogenase is an enzyme released in the heart during an ischemic event and is an index of cardiac cell necrosis. In the Grover et al. model, this is measured during reperfusion and an agent which provides for lower release levels of LDH is considered to offer greater cardioprotection since lower LDH indicates a smaller infarct size. Cardiac function is determined using the double product (DP) of heart rate times the left ventricular developed pressure (LVDP) divided by 1,000.
The lower the value for DP before ischemia for a given agent, the more cardiodepressant it is considered to be.
Male Sprague-Dawley rats (450-550 g) were used in all experiments. The rats were anesthetized using 30 mg/kg sodium pentobarbital (i.p.). They were intubated and then treated with i.v. heparin (1000 U/kg). While being mechanically ventilated, their hearts were perfused in situ via retrograde cannulation of the aorta. The hearts were then excised and quickly moved to a Langendorff apparatus where they were perfused with Krebs-Henseleit bicarbonate buffer (112 mM NaCl, 5 mM KCl, 1.2 mMMg SO4, 1 mM KH2 PO4, 1.25 mM CaCl2, 11.5 mM dextrose, and 2 mM pyruvate) at a constant pressure (75 mm Hg). A water filled latex balloon attached to a metal cannula was then inserted into the left ventricle and connected to a Statham pressure transducer for measurement of left ventricular pressure. The hearts were allowed to equilibrate for 15 minutes at which time end diastolic pressure (EDP) was adjusted to 5 mm Hg and this was maintained for 5 minutes. Pre-ischemia or pre-drug function, heart rate and coronary blood flow (extracorporeal electromagnetic flow probe, Carolina Medical Electronics, King, N.C.) were then measured. Cardiac function was determined using the double product of heart rate (HR) times left ventricular developed pressure (LVDP) divided by 1,000.
All of these hearts were treated with their respective drugs or vehicle for ten minutes. At this time, post-drug cardiac function and flow were measured and then the hearts were made globally ischemic by shutting off the buffer perfusion. The ischemia was maintained for 25 minutes at which time reperfusion with nondrug treated buffer was instituted. Reperfusion was maintained for 30 minutes and at this time reperfusion function and flow were again determined.
At the end of the reperfusion period, the reperfusion buffer was sampled for cumulative LDH release as previously described. LDH release was expressed as U/g preischemia heart weight for the 30 minute collection period. LDH release is a sensitive index for loss of cell viability. Determination of the relationship between pre-ischemic, post-drug cardiac function was made by dividing the double product (HR ×LVDP/1000) by the cumulative LDH release.
All data were analyzed using a one way analysis of variance. Multiple comparisons were done using the Duncan procedure. All data are expressed as the mean±SE.
The pre-ischemia DP values are a measure of the cardiodepression of the drug on the healthy cardiac tissue.
The post-ischemia LDH values are a measure of the cardioprotection or anti-ischemic activity of the drug. In this case, lower values indicate greater anti-ischemic activity or greater cardioprotection.
The LDH/DP values are the ratio of cardioprotection to cardiodepression, the lower values indicating a greater selectivity for anti-ischemic activity.
The post-ischemia DP indicates cardiodepression after the ischemic episode and the lower DP values here are indicative of agents which still remained in the cardiac tissue for more than 30 minutes post ischemia. [drawing 16]

[2] = system: isolated canine cardiac Purkinje fibers; assay: Calcium-dependent slow response action potential amplitude (SAPA), standard microelectrode techniques; assay type: cell-based; settings: Canis lupus familiaris, read-out: IC50 in reducing slow response action potential amplitude (SAPA)
Protocol: (§1) The calcium channel blocking and sodium entry blocking activities of compounds of the present invention were tested using standard microelectrode techniques in isolated canine cardiac Purkinje fibers as reported in J. L. Bergey et al., "Antiarrhythmic, hemodynamic, and cardiac electrophysiological evaluation of N-(2,6-dimethylphenyl)-N'-[3-(1-methylethylamino)propyl]-urea), (Wy 42,362)", Arzneim -Forsch, 33:1258, 1983). […] Depression of this parameter indicates depression of calcium entry into cardiac tissue. […] Significant depression of the upstroke velocity (vmax) indicates the blocking of sodium entry into cardiac tissue.

[3] = system: isolated canine cardiac Purkinje fibers; assay: Normal action potential parameters incl. upstroke velocity (Vmax; sodium entry), standard microelectrode techniques; assay type: cell-based; settings: for Vmax (velocity of upstroke): in V/s (unit assumed)
Protocol: as §1

[4] = system: rabbit aorta; assay: Reduction of tone of rabbit aorta by high potassium (Vasc. Ca^++ Block); assay type: cell-based; settings: Oryctolagus cuniculus; read-out: IC50 in reducing tone of rabbit aorta by high potassium (Vasc. Ca^++ Block)
Description: |(SAPA), in reducing maximum upstroke velocity (Vmax) |and in reducing tone of rabbit aorta by high potassium |(Vasc. Ca^++ Block)

[5] = system: 24 hour post-infarction arrhythmias in dogs; assay: Antiarrhythmic activity in standard canine arrhythmia model (24 hour post-infarction arrhythmias); assay type: in vivo, dog; settings: intravenous doses ranging from 6 to 15 mg/kg
Protocol: Antiarrhythmic activity was confirmed for the compound of Example 1 using a standard canine arrhythmia model as reported in J. L. Bergey et al., "Antiarrhythmic, hemodynamic, and cardiac electrophysiological evaluation of N-(2,6-dimethylphenyl)-N'-[3-(1-methylethylamino)propyl]urea), (Wy 42,362)", Arzneim -Forsch, 33:1258, 1983). In dogs suffering from 24 hour post-infarction arrhythmias the compound of Example 1 reversed arrhythmias in 5 out of 5 dogs tested following intravenous doses ranging from 6 to 15 mg/kg.

[6] = Postischemia (30 min.), occlusion 25 minutes, reperfusion 30 minutes

Structure (SMILES): CN(C)CCCN(C(=O)Cc1ccccc1)c1ccccc1SCc1ccc(Cl)cc1 [Example 1, N-[2-[[(4-Chlorophenyl)methyl]thio]phenyl]-N-[3-(dimethylamino)propyl]benzeneacetamide]
- DP (Double Product, HR x LVDP / 1,000) [1, 6]: 7
- FLOW (coronary blood flow) [1, 6]: 12
- HR (Heart Rate) [1, 6]: 211 beats/min
- LVDP (Left Ventricular Developed Pressure) [1, 6]: 34 mmHg
- LDH (Lactate Dehydrogenase Release) ([1]; Postischemia, cumulative over 30 min reperfusion, per g preischemia heart weight, lower = greater cardioprotection): 12 U/g
- FLOW (coronary blood flow) ([1]; Preischemia (Post Drug)): 25
- HR (Heart Rate) ([1]; Preischemia (Post Drug)): 229 beats/min
- LVDP (Left Ventricular Developed Pressure) ([1]; Preischemia (Post Drug)): 90 mmHg
- DP (Double Product, HR x LVDP / 1,000) ([1]; Preischemia (Post Drug), lower = more cardiodepressant): 21
- cardioprotection compared with diltiazem ([1]; post-ischemia LDH): comparable to diltiazem in cardioprotection
- LDH/DP ([1]; ratio of cardioprotection to cardiodepression, lower = greater selectivity): 0.55
- IC50 [2]: > 10 µM
- APD 50 (action potential duration @ 50% repolarization) ([3]; 1 × 10^-5): 160 ± 3
- APD90 (action potential duration @ 90% repolarization) ([3]; 1 × 10^-5): 320 ± 3
- PP (peak potential) ([3]; 1 × 10^-5): 11 ± 2
- RP (resting potential) ([3]; 1 × 10^-5): 89 ± 1
- Vmax (velocity of upstroke) ([3]; 1 × 10^-5): 203 ± 19
- APD 50 (action potential duration @ 50% repolarization) ([3]; 1 × 10^-6): 219 ± 3
- APD90 (action potential duration @ 90% repolarization) ([3]; 1 × 10^-6): 320 ± 3
- PP (peak potential) ([3]; 1 × 10^-6): 35 ± 1
- RP (resting potential) ([3]; 1 × 10^-6): 94 ± 1
- Vmax (velocity of upstroke) ([3]; 1 × 10^-6): 443 ± 7
- APD 50 (action potential duration @ 50% repolarization) ([3]; 3 × 10^-6): 154 ± 3
- APD90 (action potential duration @ 90% repolarization) ([3]; 3 × 10^-6): 305 ± 4
- PP (peak potential) ([3]; 3 × 10^-6): 28 ± 1
- RP (resting potential) ([3]; 3 × 10^-6): 89 ± 1
- Vmax (velocity of upstroke) ([3]; 3 × 10^-6): 375 ± 11
- IC50 ([3]; Canis lupus familiaris, purkinje, sodium entry, read-out: IC50 in reducing maximum upstroke velocity (Vmax)): 6.7 µM
- IC50 [4]: 1.6 µM
- reversed arrhythmias (dogs tested) [5]: 5 out of 5
